Read-outs that look alike come from different tables or passages of the source.
Assays:
Assay type in all cases: cell-based
Alternaria alternata = experiment: in vitro-Test with fungal microorganisms, Method B (tables A13-A22); conditions: Alternaria alternata, read-out: Efficacy
Procedure, shortened: (§1)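 Efficacy, relative to untreated control (0% = growth as in control, 100% = no growth), from photometric growth measurement at 600 nm after 3 to 7 days at 20° C., 85% relative humidity. Compound applied in methanol+emulsifier, solvent evaporated, then spore/mycelium-amended liquid medium added.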

Cercospora beticola = experiment: in vitro-Test with fungal microorganisms, Method B (tables C11-C20); conditions: Cercospora beticola, read-out: Efficacy %
Procedure, shortened: as §1

Cordana musae = experiment: in vitro-Test with fungal microorganisms, Method B (tables E9-E16); conditions: Neocordana musae, single active, read-out: Efficacy
Procedure, shortened: as §1

Fusarium culmorum = experiment: in vitro-Test with fungal microorganisms, Method B (tables G5-G15); conditions: Fusarium culmorum, read-out: Efficacy
Procedure, shortened: as §1

Parastagonospora nodorum = experiment: in vitro-Test with fungal microorganisms, Method B (tables H5-H8); conditions: Parastagonospora nodorum, read-out: Efficacy
Description: (§2) Example: In Vitro-Test with Fungal Microorganisms
(§3) Wells of 96-well microtiter plates are filled with 30 μl of a preparation of test compound or compound combination in methanol+emulsifier alkylaryl-polyglycol-ether. Thereafter, the solvent is evaporated in a hood. At the next step, 200 μl of liquid growth medium is given, that has been amended with an appropriate concentration of spores or mycelium suspension of the test fungus.
(§4) With the aid of a photometer, the extinction in all wells is measured at the wavelength of 600 nm.
(§5) The microtiter plates are incubated for 3 to 7 days at 20° C. and 85% relative humidity. After the incubation inhibition of growth is determined photometrically. Efficacy is calculated in relation to the untreated control, 0% efficacy means fungal growth as high as in untreated control while 100% efficacy means no fungal growth is measured.
(§6) The data in tables A1 to A12, B1 to B14, C1 to C10, D1 to D8, E1 to E8, F1 to F11, G1 to G4, H1 to H4 and I1 to I5 were collected according to Method A. The data in tables A13 to A22, B15 to B18, C11 to C20, E9 to E16, F12 to F15, G5 to G15, H5 to H8, I6 to I11 and J1 to J11 were collected according to Method B.

[1] = system: Ustilago segetum var. avenae; experiment: in vitro-Test with fungal microorganisms, Method B (tables I6-I11); conditions: read-out: Efficacy %
Procedure, shortened: as §1

Colletotrichum coccodes = experiment: in vitro-Test with fungal microorganisms, Method B (tables J1-J11); conditions: Colletotrichum coccodes, read-out: Efficacy %
Procedure, shortened: as §1

Botrytis cinerea = experiment: in vitro-Test with fungal microorganisms, Method B (tables B15-B18); conditions: Botrytis cinerea, read-out: Efficacy %
Procedure, shortened: as §1

Diaporthe citri = experiment: in vitro-Test with fungal microorganisms, Method B (tables F12-F15); conditions: Table F13
Description: as §2, §3, §4, §5, §6

[2] = single active compound at 0.08 ppm
[3] = single active compound at 2 ppm

## CCN(C)C=Nc1cc(C)c(Oc2cccc(SC(F)(F)C(F)F)c2)cc1C [(1.067), N′-(2,5-dimethyl-4-{3-[(1,1,2,2-tetrafluoro-ethyl)sulfanyl]-phenoxy}phenyl)-N-ethyl-N-methyl-imidoformamide]
Alternaria alternata; 2 ppm
  inhibition of growth at 2 ppm: 74%
Cercospora beticola; single compound
  inhibition of growth at 0.08 ppm: 0%
  inhibition of growth at 0.4 ppm: 68%
Cercospora beticola; single compound, 2 ppm
  inhibition of growth at 2 ppm: 100%
Cordana musae
  inhibition of growth at 0.08 ppm: 0%
Cordana musae; 0.4 ppm
  inhibition of growth at 0.4 ppm: 14%
Cordana musae; 2 ppm
  inhibition of growth at 2 ppm: 100%
Fusarium culmorum; alone
  inhibition of growth at 0.08 ppm: 30%
  inhibition of growth at 0.4 ppm: 26%
  inhibition of growth at 2 ppm: 99%
Fusarium culmorum; single active compound
  inhibition of growth at 0.08 ppm: 22%
  inhibition of growth at 2 ppm: 97%
Parastagonospora nodorum; 0.08 ppm
  inhibition of growth at 0.08 ppm: 94%
Parastagonospora nodorum; 0.4 ppm
  inhibition of growth at 0.4 ppm: 100%
[1]; alone
  inhibition of growth at 0.08 ppm: 100%
Colletotrichum coccodes; 0.4 ppm
  inhibition of growth at 0.4 ppm: 0%
Colletotrichum coccodes; 2 ppm
  inhibition of growth at 2 ppm: 99%
Colletotrichum coccodes; [2]
  inhibition of growth at 0.08 ppm: 1%
Colletotrichum coccodes; single active compound at 0.4 ppm
  inhibition of growth at 0.4 ppm: 12%
Colletotrichum coccodes; [3]
  inhibition of growth at 2 ppm: 97%

## CO/N=C(/C1=NOCCO1)c1ccccc1Oc1ncnc(Oc2ccccc2Cl)c1F [(3.012) fluoxastrobin, fluoxastrobin]
Alternaria alternata; 4 ppm
  inhibition of growth at 4 ppm: 68%
Alternaria alternata; 20 ppm
  inhibition of growth at 20 ppm: 92%
Alternaria alternata; single compound, 0.4 ppm
  inhibition of growth at 0.4 ppm: 70%
Botrytis cinerea; 0.4 ppm alone
  inhibition of growth at 0.4 ppm: 20%
Botrytis cinerea; 2 ppm alone
  inhibition of growth at 2 ppm: 31%
Cercospora beticola
  inhibition of growth at 0.4 ppm: 100%
Cercospora beticola; single compound
  inhibition of growth at 0.08 ppm: 96%
  inhibition of growth at 0.4 ppm: 100%
Cordana musae
  inhibition of growth at 0.08 ppm: 3%
Diaporthe citri; 0.4 ppm alone
  Efficacy: 83%
Diaporthe citri; 2 ppm alone
  Efficacy: 96%
Fusarium culmorum; alone
  inhibition of growth at 0.08 ppm: 19%
Fusarium culmorum; single active compound
  inhibition of growth at 0.08 ppm: 27%
  inhibition of growth at 0.4 ppm: 47%
  inhibition of growth at 2 ppm: 37%
[1]
  inhibition of growth at 0.08 ppm: 18%
[1]; 0.4 ppm
  inhibition of growth at 0.4 ppm: 51%
[1]; alone
  inhibition of growth at 0.08 ppm: 16%
Colletotrichum coccodes; 0.08 ppm
  inhibition of growth at 0.08 ppm: 41%
Colletotrichum coccodes; [2]
  inhibition of growth at 0.08 ppm: 0%
Colletotrichum coccodes; [3]
  inhibition of growth at 2 ppm: 0%

From patent US12653191B2, “Active compound combinations” (Bayer Aktiengesellschaft, priority 2020, dated 2026)
